From PubChem BioAssay AID1963863 (Molecular Pharmacology Branch, DTP, NCI, 2024)

Tested on: 931267-113-T-J1-PDC KRAS spheroid with HUVEC/MSC, viability
Assay: Anticancer human tumor 931267-113-T-J1-PDC patient-derived colon adenocarcinoma cell line growth inhibition [KRAS2]
Conditions: for IC50: curve of first compound; for viability, T/C: stronger effect = lower value
In short: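 Combination screen of spheroid viability in tumor-cell co-cultures with endothelial (HUVEC) and mesenchymal stem cell stroma. Each agent was tested in half-log dilutions, topping at clinical Cmax or at 10 microM without a known Cmax.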

[1] = second compound 0.1 µM, first compound 0.00316 µM
[2] = second compound 0.1 µM, first compound 0.01 µM
[3] = second compound 0.1 µM, first compound 0.0316 µM
[4] = second compound 0.316 µM, first compound 0.00316 µM
[5] = second compound 0.316 µM, first compound 0.01 µM
[6] = second compound 0.316 µM, first compound 0.0316 µM
[7] = second compound 1 µM, first compound 0.00316 µM
[8] = second compound 1 µM, first compound 0.01 µM
[9] = second compound 1 µM, first compound 0.0316 µM
[10] = second compound 3.16 µM, first compound 0.00316 µM
[11] = second compound 3.16 µM, first compound 0.01 µM
[12] = second compound 3.16 µM, first compound 0.0316 µM
[13] = second compound 10 µM, first compound 0.00316 µM
[14] = second compound 10 µM, first compound 0.01 µM
[15] = second compound 10 µM, first compound 0.0316 µM
[16] = second compound 0.1 µM, first compound 0.1 µM
[17] = second compound 0.1 µM, first compound 0.316 µM
[18] = second compound 0.1 µM, first compound 1 µM
[19] = second compound 0.316 µM, first compound 0.1 µM
[20] = second compound 0.316 µM, first compound 0.316 µM
[21] = second compound 0.316 µM, first compound 1 µM
[22] = second compound 1 µM, first compound 0.1 µM
[23] = second compound 1 µM, first compound 0.316 µM
[24] = second compound 1 µM, first compound 1 µM
[25] = second compound 3.16 µM, first compound 0.1 µM
[26] = second compound 3.16 µM, first compound 0.316 µM
[27] = second compound 3.16 µM, first compound 1 µM
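Also: compound exposure lasted 7 days before the readout.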
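For viability, T/C in this document: 100% = DMSO vehicle control viability.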

## CC(=O)Nc1cccc(-n2c(=O)n(C3CC3)c(=O)c3c(Nc4ccc(I)cc4F)n(C)c(=O)c(C)c32)c1 + COc1cc2nc(C)nc(NC(C)c3cc(N)cc(C(F)(F)F)c3)c2cc1OC1CCOC1
Second compound 0.1 µM
  IC50: 10.3 nM
Second compound 0.316 µM
  IC50: 5.76 nM
Second compound 1 µM
  IC50: 9.82 nM
Second compound 3.16 µM
  IC50: 7.73 nM
Second compound 10 µM
  IC50: < 0.1 nM
Second compound 0.1 µM, first compound 0.0001 µM
  viability, T/C: 75.8%
Second compound 0.1 µM, first compound 0.000316 µM
  viability, T/C: 75.3%
Second compound 0.1 µM, first compound 0.001 µM
  viability, T/C: 77.1%
[1]
  viability, T/C: 72.5%
[2]
  viability, T/C: 51%
[3]
  viability, T/C: 15.7%
Second compound 0.316 µM, first compound 0.0001 µM
  viability, T/C: 76.9%
Second compound 0.316 µM, first compound 0.000316 µM
  viability, T/C: 60.6%
Second compound 0.316 µM, first compound 0.001 µM
  viability, T/C: 64.8%
[4]
  viability, T/C: 51.3%
[5]
  viability, T/C: 50%
[6]
  viability, T/C: 13.7%
Second compound 1 µM, first compound 0.0001 µM
  viability, T/C: 87%
Second compound 1 µM, first compound 0.000316 µM
  viability, T/C: 71.7%
Second compound 1 µM, first compound 0.001 µM
  viability, T/C: 73.8%
[7]
  viability, T/C: 66.1%
[8]
  viability, T/C: 52.1%
[9]
  viability, T/C: 14.1%
Second compound 3.16 µM, first compound 0.0001 µM
  viability, T/C: 91.3%
Second compound 3.16 µM, first compound 0.000316 µM
  viability, T/C: 82.1%
Second compound 3.16 µM, first compound 0.001 µM
  viability, T/C: 75.1%
[10]
  viability, T/C: 59.5%
[11]
  viability, T/C: 52%
[12]
  viability, T/C: 19.6%
Second compound 10 µM, first compound 0.0001 µM
  viability, T/C: 21.4%
Second compound 10 µM, first compound 0.000316 µM
  viability, T/C: 37.6%
Second compound 10 µM, first compound 0.001 µM
  viability, T/C: 20.4%
[13]
  viability, T/C: 2.31%
[14]
  viability, T/C: 14.3%
[15]
  viability, T/C: 1.54%

## CCNC(=O)CC1N=C(c2ccc(Cl)cc2)c2cc(OC)ccc2-n2c(C)nnc21 (stereo not given) + C=CC(=O)N1CCN(c2nc(OCC3CCCN3C)nc3c2CCN(c2cccc4cccc(C)c24)C3)CC1CC#N
Second compound 0.0316 µM
  IC50: 3970 nM
Second compound 0.1 µM
  IC50: 2560 nM
Second compound 0.316 µM
  IC50: 1430 nM
Second compound 1 µM
  IC50: 1030 nM
Second compound 3.16 µM
  IC50: < 31.6 nM
Second compound 0.0316 µM, first compound 0.0316 µM
  viability, T/C: 92%
Second compound 0.0316 µM, first compound 0.1 µM
  viability, T/C: 80.3%
Second compound 0.0316 µM, first compound 0.316 µM
  viability, T/C: 80.2%
Second compound 0.0316 µM, first compound 1 µM
  viability, T/C: 51.9%
Second compound 0.0316 µM, first compound 3.16 µM
  viability, T/C: 61%
Second compound 0.0316 µM, first compound 10 µM
  viability, T/C: 38.1%
[3]
  viability, T/C: 92.5%
[16]
  viability, T/C: 81.4%
[17]
  viability, T/C: 70.1%
[18]
  viability, T/C: 60.6%
Second compound 0.1 µM, first compound 3.16 µM
  viability, T/C: 45.4%
Second compound 0.1 µM, first compound 10 µM
  viability, T/C: 41.6%
[6]
  viability, T/C: 72.4%
[19]
  viability, T/C: 74.7%
[20]
  viability, T/C: 66.5%
[21]
  viability, T/C: 52.9%
Second compound 0.316 µM, first compound 3.16 µM
  viability, T/C: 43.7%
Second compound 0.316 µM, first compound 10 µM
  viability, T/C: 38.9%
[9]
  viability, T/C: 82.1%
[22]
  viability, T/C: 69.1%
[23]
  viability, T/C: 61.1%
[24]
  viability, T/C: 51.1%
Second compound 1 µM, first compound 3.16 µM
  viability, T/C: 39.6%
Second compound 1 µM, first compound 10 µM
  viability, T/C: 31.5%
[12]
  viability, T/C: 0.31%
[25]
  viability, T/C: 0.3%
[26]
  viability, T/C: 0.26%
[27]
  viability, T/C: 0.17%
Second compound 3.16 µM, first compound 3.16 µM
  viability, T/C: 0.16%
Second compound 3.16 µM, first compound 10 µM
  viability, T/C: 0.17%

## CCN1CCN(Cc2ccc(Nc3ncc(F)c(-c4cc(F)c5nc(C)n(C(C)C)c5c4)n3)nc2)CC1 + CC1OCC2(CCN(c3cnc(Sc4ccnc(N)c4Cl)c(N)n3)CC2)C1N
Second compound 0.1 µM
  IC50: 27.3 nM
Second compound 0.316 µM
  IC50: 32.8 nM
Second compound 1 µM
  IC50: 41.2 nM
Second compound 3.16 µM
  IC50: 68.8 nM
Second compound 10 µM
  IC50: 201 nM
[1]
  viability, T/C: 75.4%
[2]
  viability, T/C: 58.2%
[3]
  viability, T/C: 43.5%
[16]
  viability, T/C: 51.4%
[17]
  viability, T/C: 53.7%
[18]
  viability, T/C: 36.9%
[4]
  viability, T/C: 63%
[5]
  viability, T/C: 91.7%
[6]
  viability, T/C: 50.3%
[19]
  viability, T/C: 43.3%
[20]
  viability, T/C: 45.1%
[21]
  viability, T/C: 37.5%
[7]
  viability, T/C: 69.5%
[8]
  viability, T/C: 82%
[9]
  viability, T/C: 53.1%
[22]
  viability, T/C: 41.4%
[23]
  viability, T/C: 42%
[24]
  viability, T/C: 35.3%
[10]
  viability, T/C: 71.5%
[11]
  viability, T/C: 70.2%
[12]
  viability, T/C: 54.4%
[25]
  viability, T/C: 43.6%
[26]
  viability, T/C: 40.8%
[27]
  viability, T/C: 23.8%
[13]
  viability, T/C: 70.6%
[14]
  viability, T/C: 79.1%
[15]
  viability, T/C: 52.9%
Second compound 10 µM, first compound 0.1 µM
  viability, T/C: 58.7%
Second compound 10 µM, first compound 0.316 µM
  viability, T/C: 49%
Second compound 10 µM, first compound 1 µM
  viability, T/C: 9.83%
